Results taken from patent US11279774B2, “Cyclodextrin dimers, compositions thereof, and uses thereof” (UNDERDOG PHARMACEUTICALS, INC., priority 2019, dated 2022).

What was measured:
[1] = system: blood cells (whole blood); experiment: Extraction of 7KC and cholesterol from blood cells (ex vivo whole blood, LC-MS/MS); format: cell-based, human; details: whole blood incubated 3 hours at 37C; for plasma (serum) cholesterol levels: mass spectrometry
Experimental: Blood was collected from healthy volunteers by licensed phlebotomists. The test substances or PBS alone (negative control) were added to whole blood at various concentrations and incubated for 3 hours at 37C. Blood was then spun down and serum collected. Serum was frozen and then processed for mass spec.
Plasma free 7-ketocholesterol was determined by LC-MS/MS following protein precipitation and extraction with acetonitrile and derivatization with the novel quaternary aminooxy (QAO) mass tag reagent, Amplifex Keto Reagent (AB Sciex, Framingham, Mass., USA), which has been used in the analysis of testosterone (Star-Weinstock [et al.], Analytical Chemistry, 84(21):9310-9317. (2012)).
A 50 μL sample of plasma was spiked with 0.5 ng of the internal standard, d7-7-ketocholesterol (Toronto Research Chemicals, North York, Ontario, CA) prepared at 0.1 ng/μL in ethanol. The sample was treated with 250 μL of acetonitrile, vortex mixed, centrifuged to remove protein at 12,000×g for 10 min. The supernatant was dried under vacuum and then treated with 75 μL of QAO reagent. The working reagent was prepared by mixing 0.7 mL of Amplifex keto reagent with 0.7 mL of Amplifex keto diluent to prepare a 10 mg/mL stock. This stock was then diluted 1:4 with 5% acetic acid in methanol to a final working concentration of 2.5 mg/mL. The mixture was allowed to react at room temperature for two days before LC-MS/MS analysis.
Standards of 7-ketocholesterol (Toronto Research Chemicals, North York, Ontario, CA) were prepared from 1 to 100 ng/ml in charcoal stripped plasma, SP1070, (Golden West Biological, Temecula, Calif., USA) and in phosphate buffered saline. There was residual 7-ketocholesterol detected in the stripped plasma, so the standards from PBS were used.
QAO-7-ketocholesterol derivatives were analyzed using a 4000 Q-TRAP hybrid/triple quadrupole linear ion trap mass spectrometer (SCIEX, Framingham, Mass., USA) with electrospray ionization (ESI) in positive mode. The mass spectrometer was interfaced to a Shimadzu (Columbia, Md.) SIL-20AC XR auto-sampler followed by 2 LC-20AD XR LC pumps.
The instrument was operated with the following settings: source voltage […], GS1 50, GS2 50, CUR 20, TEM 550 and CAD gas medium. Compounds were quantified with multiple reaction monitoring (MRM) and transitions optimized by infusion of pure derivatized compounds as presented in Table 1 below. The bold transitions were used for quantification.
Separation was achieved using a Gemini 3μ C6-phenyl 110 Å, 100×2 mm column (Phenomenex, Torrance, Calif., USA) kept at 35° C. using a Shimadzu (Columbia, Md.) CTO-20AC column oven. The gradient mobile phase was delivered at a flow rate of 0.5 ml/min, and consisted of two solvents, A: 0.1% formic acid in water, B: 0.1% formic acid in acetonitrile. The initial concentration of solvent B was 20% followed by a linear increase to 60% B in 10 min, then to 95% B in 0.1 min, held for 3 minutes, decreased back to starting 20% B over 0.1 min, and then held for 4 min. […]
Data were acquired using Analyst 1.6.2 (SCIEX, Framingham, Mass., USA) and analyzed with Multiquant 3.0.1 (SCIEX, Framingham, Mass., USA) software. Sample values were calculated from standard curves generated from the peak area ratio of the analyte to internal standard versus the analyte concentration that was fit to a linear equation with 1/× weighting. The lower limit of quantification was 1 ng/mL with an accuracy of 102% and precision (relative standard deviation) of 8.5%. […]

[2] = Turbidity assay (in vitro solubility assay), 7KC suspension; format: physicochemical; details: 7KC vs cholesterol
Experimental: This single concentration of cyclodextrin is used in order to standardize the test results. To perform the test, the samples are incubated for 30 mins at 37 C, and then absorbance at 350 nm is measured, e.g., using a spectrophotometer plate reader. Relative turbidity is determined by dividing the measured turbidity in the presence of the cyclodextrin to the baseline turbidity without the cyclodextrin. A given cyclodextrin has greater affinity for 7KC than cholesterol if the relative turbidity of the 7KC suspension is lower than the relative turbidity of the cholesterol solution.

blood cells = experiment: Hemolysis assay; format: cell-based; details: 7.5 mM, three hours at 37 C
Experimental: For the test solutions, the amount of PBS varied depending on the concentration of cyclodextrin being tested. Samples were tested in triplicate. 50 μL of blood was added to each sample with PBS and cyclodextrin solution (stocks also made in PBS) to achieve the appropriate concentration in a final volume of 200 ul. 5% Triton X-100 was used as the positive control and PBS was the negative control. Once all the samples were mixed the samples were placed into a 37 C incubator for three hours with agitation. The positive control was 100% hemolyzed by Triton X-100 detergent. Once the samples were out of incubation, they were diluted by the same factor in a 96 hydrograde plate and normalized to the positive control absorbance, which is around 1.1. The absorbance is read at 540 nm. The average of the samples was then corrected by subtracting the negative control. The experiment was run three times, and the error bars are the standard error of the mean (Melanga [et al.], Journal of Pharmaceutical Sciences, 105(9):2921-31. (2016)), (Kiss [et al.], European Journal of Pharmaceutical Sciences, 40(4):376-80. (2010)).

Which “removal of 7KC from blood cells (plasma free 7KC)” value [1] does the source give for “large-face butyl-linked hydroxy-propyl beta-cyclodextrin HP(βCD-BUT-βCD), DS˜8 [DS8 HPβCD dimers]” here?
Its value is “removed substantial quantities of 7KC”.

And the “plasma (serum) cholesterol levels” value [1]?
Its value is “unperturbed”.

And the “plasma (serum) cholesterol levels” value ([1]; listed as HPβCD dimer)?
Its value is “not perturbed”.

What about the “plasma (serum) cholesterol levels” value ([1]; listed as HPβCD dimers (DS˜8)) of the same substance?
Its value is “does not appreciably impact plasma cholesterol levels”.

What about the “removal of 7KC from blood cells (plasma free 7KC)” value ([1]; listed as HPβCD dimers (DS˜8)) of the same substance?
The value was “much more efficiently than HPβCD monomers”.

What does the source list for “large-face butyl-linked hydroxy-propyl beta-cyclodextrin HP(βCD-BUT-βCD), DS˜3 [DS3 butyl dimer]”?
specificity for 7KC over cholesterol (turbidity) [2]: affinity and specificity for 7KC; specificity for 7KC over cholesterol (turbidity) ([2]; listed as HPβCD-butyl-DS3): greater specificity for 7KC over cholesterol

With “large-face triazole-linked beta-cyclodextrin HP(βCD-Triazole-βCD) DS˜3 [HPβCD -triazole-DS3]” as the substance, how does the “specificity for 7KC over cholesterol (turbidity)” value [2] read?
Its value is “greater specificity for 7KC over cholesterol”.

And the “specificity for 7KC over cholesterol (turbidity)” value ([2]; listed as Triazole-linked HPβCD dimer (DS˜3))?
The value was “affinity and specificity for 7KC”.

What about the “specificity for 7KC over cholesterol (turbidity)” value ([2]; listed as triazole dimers labeled DS 3) of the same substance?
The value was “greater specificity than DS 6 or DS 7 dimers”.

With “large-face triazole-linked beta-cyclodextrin (βCD-(Triazole)1-BCD, DS=0) [CD-triazole-CD DS 0]” as the substance, how does the hemolysis (blood cells) read?
Its hemolysis is about 5%.

What about the “specificity for 7KC over cholesterol (turbidity)” value [2] of the same substance?
Its value is “specificity for 7KC over cholesterol”.
